Measured values: patent US20230390384A1 (priority 2020, published 2023)

Columns and labels:
COVID-19 RBD antigen = format: in vivo, SARS-CoV-2; settings: Example 2, FIG. 6b; 5 μg each S1 and RBD; L-pampo 75 μg Pam3CSK4 + 60 μg poly(I:C) vs Alum, Addavax, AddaS03; Balb/c mice i.m. twice at 3-week intervals, serum 2 weeks after second immunization
COVID-19 S1 antigen = format: in vivo, SARS-CoV-2; settings: Example 2, FIG. 6a; 5 μg each S1 and RBD; L-pampo 75 μg Pam3CSK4 + 60 μg poly(I:C) vs Alum, Addavax, AddaS03; Balb/c mice i.m. twice at 3-week intervals, serum 2 weeks after second immunization
Mouse splenocytes = experiment: IFN-γ ELISPOT on splenocytes of immunized mice (cellular immune response); format: in vivo, Balb/c mice; settings: Example 3, FIG. 11; test vaccine using only poly(I:C) as adjuvant, among all test vaccines

Q: With “N-palmitoyl-S-[2,3-bis(palmitoyloxy)-(2RS)-propyl]-[R]-cystein-SKKKK [Pam3CSK4]” as the substance, how does the “RBD antigen-specific antibody titer” value (COVID-19 RBD antigen) read?
A: relatively superior

Q: What about the “S1 antigen-specific antibody titer” value (COVID-19 S1 antigen) of the same substance?
A: relatively superior

Q: poly(I:C) was tested. Which “IFN-γ spot formation (ELISPOT)” value (Mouse splenocytes) did it give?
A: most IFN-γ spot formation
